Results published in patent publication US20040082554A1, “Neuroactive steroid derivatives and method of use” (priority 2003, published 2004).
“Also recorded” adds a separate entry of the source.

What was measured:
NMDA receptor [1] = assay: NMDA-induced striatal dopamine release, in vivo microdialysis; design: species or system rat
Experimental: In vivo Microdialysis. Prior to surgery the animals were anesthetized with sodium pentobarbital (50 mg/kg, i.p) and placed in a stereotaxic apparatus (David Kopf Instruments). A rostro-caudal incision was then made to expose the dorsal surface of the skull. A hole was drilled in the skull above the striatum with a stereotaxic drill (+0.5 mm A/P and +2.9 mm M/L relative to bregma, (Paxinos and Watson, 1997). Two other holes were drilled in the skull where screws were secured. A dialysis guide cannula (CMA Microdialysis; Acton, Mass.) was lowered 3 mm ventrally and was then secured to the skull with dental cement. All rats were housed in individual cages following surgery.
No less than two days after surgery, the rats were briefly anesthetized with isoflurane to facilitate the removal of the dummy from the guide cannula and insertion of a microdialysis probe (CMA 10, dialysis membrane length of 2 mm of polycarbonate, with a molecular weight cut off of 20 kD) into the striatum. Animals were allowed to recover for 15 min prior to the initiation of the experiment following probe insertion. Artificial cerebrospinal fluid (aCSF) was pumped through the dialysis probe at a rate of 2 μl/min. Twelve 20 min samples were collected over 240 min and immediately stored at −20° C. The first six 20 min samples were collected to establish the baseline concentration of dopamine. […] At this point the perfusate for the DMSO group was changed from aCSF to one of the following solutions: NMDA (1 mM) or NMDA (1 mM) plus D-AP5 (100-200 μM). The perfusate for the steroid group was switched from aCSF to NMDA (1 mM). After collection of sample 7, the perfusate was switched back to aCSF and 5 more 20 min samples were collected. Upon termination of the experiment, samples were stored at −80° C. until analysis.
All samples were analyzed using high pressure liquid chromatography (HPLC) with electrochemical detection (ESA; Chelmsford, Mass.). The mobile phase consisted of 50 mM Na2HPO4, 20 mM citric acid, 1.5 mM heptanosulfonic acid, 0.1 mM EDTA, and 5% methanol at pH 4.0. The dopamine was separated on a 15 cm reverse phase C-18 column (Alltech; Deerfield, Ill.) and oxidized at a potential of 175 mV. Dopamine concentrations per sample were normalized to an external standard curve and plotted as percentage change from baseline.

mice = assay: Tail flick test (latency to remove the tail from the light source); format: in vivo; conditions: for dose dependence of tail flick latency: mice, 5, 10 or 15 mg/kg i.p., tested every 10 min for 120 min
Experimental: FIG. 9. […] Following the injection the mice were tested for every 10 min for 120 min. The latency to remove the tail from the light source was used as a measure of analgesia. […] The values are mean+SEM for 10-15 mice for each group. Data were analyzed using a one-way ANOVA followed by Fisher's LSD.* Denotes significance compared to control.
FIG. 10. […] Mice were injected with PACME (5, 10 or 15 mg/kg). Following the injection the mice were tested for every 10 min for 120 min. The latency to remove the tail from the light source was used as a measure of analgesia. […] Data were analyzed using a one-way ANOVA followed by Fisher's LSD. The values are mean±SEM for 10-15 mice for each group.* Denotes significance compared to control.
The data were analyzed using a one-way ANOVA followed by Fisher's LSD.

NMDA receptors = conditions: in vitro studies, Park-Chung et al., 1994; cited from earlier work
rats = assay: Cocaine sensitization (horizontal activity after daily cocaine injections); format: in vivo, rat
Experimental: Cocaine Sensitization. Rats were habituated to the photocell apparatus (AccuScan Instruments; Columbus, Ohio) for two hours and administered saline (i.p.) one day prior to the start of the experiment. On the first day of the experiment, rats were rehabituated to the behavior boxes for one hour prior to the start of the experiment. […] Horizontal activity was measured for 2 hours after every cocaine injection. Saline-cocaine or 3α5βHS-cocaine were administered daily on 7 consecutive days.

NMDA receptor [2] = assay: Behavioral hyperactivity (horizontal activity) induced by intra-striatal microinjection of NMDA; format: in vivo, rat
Experimental: Microinjection Experiments. Rats were anesthetized with sodium pentobarbital (50 mg/kg, i.p.) and placed in a stereotaxic apparatus (David Kopf Instruments). A rostro-caudal incision was then made to expose the dorsal surface of the skull. Two bilateral holes were drilled above the striatum (+1.0 mm A/P, +3.0 mm M/L, −3.0 mm D/V relative to bregma, Paxinos and Watson, 1997) and guide cannulae (9 mm, 24 gauge) were implanted and fastened to the skull using screws and dental cement. All rats were housed in individual cages following surgery. Three days post surgery rats were habituated to the photocell apparatus (AccuScan Instruments; Columbus, Ohio) for two hours. On the day of the experiment rats were rehabituated for one hour prior to the start of the experiment. […] The animals were returned to the behavior boxes and activity was monitored continuously for 60 min.
Horizontal activity was measured in 5 min blocks for 60 min immediately following microinjection. The data were analyzed with a mixed factors analysis of variance (ANOVA) with repeated measures over time in FIG. 4A. […] The data in FIG. 4B represent the 10 min time point from FIG. 4A and was analyzed using a one-way ANOVA.

Molecule: NC(CCCP(=O)(O)O)C(=O)O [D-AP5]
- effect on NMDA-induced increase in extracellular striatal dopamine (NMDA receptor [1]; 100 μM or 200 μM co-perfused with 1 mM NMDA): inhibited; also recorded: attenuated in a dose-dependent manner

Molecule: CC(=O)[C@H]1CC[C@H]2[C@@H]3CC[C@@H]4C[C@H](OCC(=O)O)CC[C@]4(C)[C@H]3CC[C@]12C [PACME, pregnanolone carboxy methyl ether]
- tail flick latency at 90 and 120 min (mice; PACME 10 mg/kg): increased the latency
- analgesia compared to control (pair-wise analysis) (mice; PACME 7 and 10 mg/kg, at 20, 30, 40, 60 min following injection): significant levels of analgesia
- lengthening of tail flick latency relative to cut-off time (mice; PACME, dose not stated, cut-off time 10 seconds): near maximal lengthening of the latency time
- dose dependence of tail flick latency (mice): increased the latency to remove the tail from the light source dose-dependently
- duration of analgesic effect compared with morphine (2 mg/kg, s.c.) (mice; tail flick, mice): longer lasting
- analgesia compared with morphine (mice; tail flick, mice, PACME vs morphine 2 mg/kg s.c.): analgesia similar to that of morphine

Molecule: CN1CC[C@]23c4c5ccc(O)c4O[C@H]2[C@@H](O)C=C[C@H]3[C@H]1C5 [morphine, reference compound]
- time of greatest analgesic effect following injection (mice; morphine 2 mg/kg s.c.): 20 min
- analgesia compared to control (pair-wise analysis) (mice; morphine 2 mg/kg s.c., from 20 min to 60 or 90 min following injection): significant levels of analgesia

Molecule: CC(=O)[C@H]1CC[C@H]2[C@@H]3CC[C@@H]4C[C@H](O)CC[C@]4(C)[C@H]3CC[C@]12C [pregnanolone]
- effect on NMDA-induced increase in extracellular striatal dopamine (NMDA receptor [1]; 160 μg/kg i.p. (sub-sedative dose)): had no effect
- effect on NMDA-induced increase in extracellular striatal dopamine (NMDA receptor [1]; 160 μg/kg i.p. (sub-sedative dose), listed as Pregnanolone): no influence

Molecule: pregnanolone hemisuccinate [3α5βHS]
- action on NMDA receptors in vitro (NMDA receptors): inhibits NMDA receptors
- effect on development of behavioral sensitization to cocaine (rats; 10 mg/kg i.p. 10 min prior to each of 7 daily cocaine injections (15 mg/kg i.p.)): inhibits the initiation of behavioral sensitization to cocaine; also recorded: inhibited the development of behavioral sensitization to cocaine
- effect on behavioral hyperactivity induced by saline administration or an acute cocaine injection (rats; highest dose used): had no effect
- sedation (saline+3α5βHS vs saline+vehicle horizontal activity) (NMDA receptor [2]; 10 mg/kg i.p., any time point): did not induce sedation
- effect on NMDA-induced behavioral activation (horizontal activity) (NMDA receptor [2]; 1 and 10 mg/kg i.p. 10 min prior to intra-striatal NMDA, 10 min time point): decrease in horizontal activity; also recorded: blocked
- tail flick latency at 90 and 120 min (mice; 3α5βHS 15 mg/kg, compared to the other groups): effective in increasing the latency
- analgesia compared to control (pair-wise analysis) (mice; 10 and 15 mg/kg i.p., at 20, 30, 40, 60, 90 min): significant levels of analgesia
- dose dependence of tail flick latency (mice): dose-dependent increase in tail flick latency; also recorded: increased the latency to remove the tail from the light source dose-dependently
- duration of analgesic effect compared with morphine (2 mg/kg, s.c.) (mice; tail flick, mice): longer lasting
- effect on NMDA-induced increase in extracellular striatal dopamine (NMDA receptor [1]; 5, 10 and 20 mg/kg i.p., 20 and 40 min following NMDA perfusion): inhibits NMDA-induced dopamine release; also recorded: blocked
- EC50 for inhibition of NMDA-induced dopamine release (NMDA receptor [1]; i.p. injection, 1 mM NMDA perfusion, at 20 min): 4 mg/kg
